Measured values: patent publication US20110293600A1, “Anticancer Composition Comprising Antitumor Agent and Substance Having Inhibitory Effects on L1CAM Activity and Expression” (KOREA RESEARCH INSTITUTE OF BIOSCIENCE AND BIOTECHNOLOGY, priority 2008, published 2011)

How the values were obtained:
[1] = tested on: SCK cells subcutaneously transplanted; experiment: Cancer growth in mouse xenograft model; assay type: in vivo, Nude mice Balb/c nu/nu; conditions: Example 3, FIG. 2, A10-A3 10 mg/kg three times per week, cisplatin 3 mg/kg twice per week
Procedure: Nude mice Balb/c nu/nu were purchased via Central Lab. Animal Inc. from Japan SLC. The mice were 6 to 8 weeks old, weighed 18 to 22 g and acclimated for one week in a lab of the Korean Research Institute of Bioscience and Biotechnology. SCK cells (3×10^7) were subcutaneously transplanted into 40 mice, and were randomly divided into four groups when grown to a tumor mass having a size of 100 to 200 mm^3 after one week. A10-A3 was administered to the mice at a dose of 10 mg/kg three times per week. Cisplatin was administered to the mice at a dose of 3 mg/kg twice per week. As the control group, mIgG was administered at the same level, instead of A10-A3 and saline was administered at the same level, instead of cisplatin. The weight of nude mice and tumors were measured three times per week.

[2] = tested on: L1CAM protein in cholangiocarcinoma cell lines (SCK); experiment: Detection of protein expression of L1CAM using Western blotting; assay type: cell-based; conditions: SCK transduced with siRNA, cultured 72 hours; compared to siRNA non-specific for L1CAM; FIG. 5(A) lower
Procedure: In order to knock down expression of L1CAM in cholangiocarcinoma cell lines (SCK), the cells were transduced with siRNA (5′-[…]-3′, Sequence ID No. 1) specific for L1CAM and siRNA (5′-CAGTCGCGTTTGCGACTGG-3′, Sequence ID No. 2) non-specific for L1CAM and then cultured for 72 hours and expression of L1CAM was detected in protein level using Western blotting. In order to isolate the total protein of cell lines treated with siRNA, the cell lines were treated with 500 μl of cell lysis solution (RIPA buffer), and the proteins thus obtained were isolated in 10% SDS-PAGE, transferred to a nitrocellulose membrane and subjected to Western blotting. The nitrocellulose membrane was allowed to react in PBST (PBS+0.1% Tween 20) buffer containing 5% skim milk for one hour and washed two or more times with the PBST buffer. Anti-L1CAM antibody (A10-A3) was added as a primary antibody to the reacted nitrocellulose membrane, followed by allowing to react for 2 hours. The resulting membrane was washed with the PBST buffer five times and reacted with anti-mouse IgG HRP (horseradish peroxidase) conjugate (1:5000 Sigma) for one hour. The reaction solution was washed five times with the PBST buffer and was colored with enhanced chemiluminescence reagent (ECL) (Amersham biosciences) as a detection reagent.

[3] = tested on: L1CAM mRNA in cholangiocarcinoma cell lines (SCK); experiment: Detection of mRNA expression of L1CAM by RT-PCR; assay type: cell-based; conditions: SCK transduced with siRNA, cultured 72 hours; compared to siRNA non-specific for L1CAM; FIG. 5(A) upper
Procedure: In order to knock down expression of L1CAM in cholangiocarcinoma cell lines (SCK), the cells were transduced with siRNA (5′-[…]-3′, Sequence ID No. 1) specific for L1CAM and siRNA (5′-CAGTCGCGTTTGCGACTGG-3′, Sequence ID No. 2) non-specific for L1CAM and then cultured for 72 hours. In order to isolate the total RNA of the cultured cholangiocarcinoma cells, the cells were treated with a 1 ml trizol reagent (Invitrogen, Inc.) at room temperature for 5 minutes. 0.2 ml of chloroform was added to the cells, and the mixture was violently shaken about 15 times and allowed to react at room temperature for 3 minutes. The resulting solution was centrifuged at 4° C. and 14,000 rpm for […], 400 μl of the supernatant was transferred to another tube and the same amount of isopropanol was added to the residue and the mixture was allowed to react at room temperature for 10 minutes. The reaction solution was centrifuged at 4° C. at 14,000 rpm for 15 minutes, the supernatant was discarded, and the residue was washed with 75% ethanol. oligo(d)T, dNTP, RNase inhibitor and reverse transcriptase were added to 2 ug of the RNA thus extracted and the mixture was allowed to react at 42° C. for one hour to synthesize cDNA. […]

## N.N.[Cl][Pt][Cl] [cisplatin]
[1]
  proliferation inhibition (tumor growth): about 30%

## siRNA specific for L1CAM: siRNA (5′-GCCAATGCCTACATCTACGTT-3′, Sequence ID No. 1) specific for L1CAM (listed as DNA, chemistry not given here)
[2]
  total amount of protein expressed (L1CAM): decrease
[3]
  total amount of L1CAM expressed (mRNA): decrease
